Results: paper PMC7508162 (Frontiers in Pharmacology, 2020)

Tests used:
NPP4 = target: T1, NPP4 (Homo sapiens, UniProt Q9Y6X5); test: NPP4 assay with AP4A as substrate, luciferin-luciferase detection; assay type: biochemical; conditions: for inhibition at 10 µM: 10 µM test compound; for Ki: 20 µM AP4A, read-out: Ki ± SEM
T1 construct: 1.4 µg of NPP4 (soluble form expressed in insect cells and purified); made in house; host or cells: Sf9 insect cells
T1 sequence (Q9Y6X5 16-407 limits assumed): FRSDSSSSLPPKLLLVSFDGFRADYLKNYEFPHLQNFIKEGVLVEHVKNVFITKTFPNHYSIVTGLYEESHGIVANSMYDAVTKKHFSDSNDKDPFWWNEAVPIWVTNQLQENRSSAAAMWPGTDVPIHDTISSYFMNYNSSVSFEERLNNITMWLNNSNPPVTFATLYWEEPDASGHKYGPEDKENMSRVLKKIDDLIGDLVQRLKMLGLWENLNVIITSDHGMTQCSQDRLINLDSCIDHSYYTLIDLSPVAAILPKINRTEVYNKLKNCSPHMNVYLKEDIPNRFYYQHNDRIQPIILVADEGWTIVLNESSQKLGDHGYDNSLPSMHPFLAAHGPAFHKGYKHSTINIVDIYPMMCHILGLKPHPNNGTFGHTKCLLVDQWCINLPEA
Method: Soluble NPP4 was expressed in Sf9 insect cells as recently described in detail ([Lopez et al., 2020]). Diadenosine tetraphosphate (AP4A) was employed as a substrate which is cleaved by NPP4 to ATP and AMP. The reaction product ATP was quantified by luciferin-luciferase reaction ([Lopez et al., 2020]). A mixture of 1.4 µg of NPP4 (soluble form expressed in insect cells and purified) ([Lopez et al., 2020]), 10 µM of test compound, 2 % DMSO, and 20 µM of AP4A as a substrate were incubated for 60 min at 37°C with gentle shaking. The reaction was terminated by heating at 90°C for 5 min, and after cooling down on ice, 50 µl of D-luciferin dissolved in buffer (300 mM Tris-HCl, 15 mM MgCl2, 100 ng D-luciferin, pH 7.8) and 50 µl of luciferase (50 ng dissolved in H2O) were added. The firefly luciferase reacts with D-luciferin in the presence of ATP produced by NPP4. The resulting luminescence was measured between 10–14 min at 560 nm using a BMG PheraStar FS plate reader (BMG Labtech GmbH, Ortenberg, Germany).

human CD73 = target: T2, human CD73 (Homo sapiens, UniProt P21589); test: CD73 assay with [2,8-3H]AMP as radioactive substrate; assay type: biochemical; conditions: for Ki: soluble human CD73, 5.0 µM [2,8-3H]AMP, read-out: Ki ± SEM
T2 construct: the catalytic domains of the enzymes were amplified and sub-cloned into the expression vector pACGP67 A/B; 9xHis (C); made in house; host or cells: Sf9 insect cells (baculovirus, pACGP67 A/B)
T2 sequence (P21589 27-549 limits assumed): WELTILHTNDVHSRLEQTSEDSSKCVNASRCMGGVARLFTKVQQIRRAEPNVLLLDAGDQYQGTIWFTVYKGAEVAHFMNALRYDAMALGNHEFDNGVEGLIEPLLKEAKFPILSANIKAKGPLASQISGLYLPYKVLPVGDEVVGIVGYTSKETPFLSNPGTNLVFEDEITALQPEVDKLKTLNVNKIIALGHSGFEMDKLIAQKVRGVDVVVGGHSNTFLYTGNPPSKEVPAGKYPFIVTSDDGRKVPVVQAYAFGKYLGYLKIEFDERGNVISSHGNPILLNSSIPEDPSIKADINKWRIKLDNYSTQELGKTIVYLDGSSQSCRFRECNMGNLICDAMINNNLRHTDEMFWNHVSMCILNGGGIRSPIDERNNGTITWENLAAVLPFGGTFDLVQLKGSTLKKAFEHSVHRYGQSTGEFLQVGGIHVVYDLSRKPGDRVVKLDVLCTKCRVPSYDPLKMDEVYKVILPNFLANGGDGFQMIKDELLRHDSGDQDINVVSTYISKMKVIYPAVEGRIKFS
Excerpt: The cDNAs of the human enzymes NPP1, NPP3, NPP5, CD38 and CD73 (Genbank accession no. NM_006258, NM_005021, NM_021572, NM_ 001775, and NM_002526, respectively) were obtained from Origene (Rockville, USA). Soluble enzymes were produced as previously reported with some modifications ([Lee et al., 2015]; [Junker et al., 2019]). Briefly, the catalytic domains of the enzymes were amplified and sub-cloned into the expression vector pACGP67 A/B modified with the addition of 9 x histidine tag (His-tag) at the C-terminus (except for NPP1). The plasmids were transfected in Sf9 insect cells using Cellfectin™ II Reagent (Thermo Fisher Scientific, MA, USA) and ProEasy™ baculovirus linearized DNA (Cat.#A10S, AB Vector, LLC). Protein expression was conducted for 48 h at 27°C. The signal peptide sequence of the expression vector shuttled the proteins into the supernatant. The supernatant medium was collected, and the enzymes were purified using HisPur™ Ni^2+-NTA spin columns according to the manufacturer’s protocol. The protein concentration was determined by the method previously described by [Lowry et al. (1951)].
The assay was performed as previously described ([Freundlieb et al., 2014]). Briefly, it contained with 0.09 µg/ml of soluble human CD73 recombinantly expressed in Sf9 insect cells as described ([Junker et al., 2019]), the respective test compound, and 5.0 µM [2,8-^3H]AMP (specific activity 7.4 x 108 Bq/mmol, 20 mCi/mmol) as radioactive substrate in assay buffer consisting of 25 mM Tris buffer, 140 mM NaCl, 25 mM NaH2PO4 pH 7.4. The enzymatic reaction was performed for 25 min at 37°C in a shaking water bath. Then, 500 µl of cold precipitation buffer (100 mM LaCl3, 100 mM sodium acetate, pH 4.0) were added to precipitate free phosphate and unconverted [2,8-^3H]AMP. After 30 min on ice, filtration through GF/B glass fiber filters using a cell harvester was used to separate AMP from adenosine. After washing each reaction vial three times with 400 µl of cold (4°C) demineralized water, aliquots of the filtrate were taken, and 5 ml of scintillation cocktail (ULTIMA Gold XR9) was added. The amount of formed adenosine was quantified by liquid scintillation counting (TRICARB 2900 TR, Packard/PerkinElmer).

SMILES | inhibition at 10 µM (NPP4) [%] | Ki (NPP4) [nM] | Ki (human CD73) [nM] | fold higher potency at CD73 compared to CD39 (human CD73; CD73 Ki vs CD39 Ki) [fold]
CCN(CC)c1ncnc2c1ncn2[C@@H]1O[C@H](COP(=O)(O)OP(=O)(O)C(Br)(Br)P(=O)(O)O)[C@@H](O)[C@H]1O [ARL67156, (Dibromo((((((2R,3S,4R,5R)-5-(6-(diethylamino)-9H-purin-9-yl)-3,4-dihydroxytetrahydrofuran-2-yl)methoxy)-(hydroxy)-phosphoryl)oxy)(hydroxy)phosphoryl)methyl)-phosphonic Acid, reference compound] | -1 | > 10000 | 451 ± 121 | –
CCCCSc1nc2c(N)ncnc2n1[C@@H]1O[C@H](COP(=O)(O)OP(=O)(O)C(Br)(Br)P(=O)(O)O)[C@@H](O)[C@H]1O [Compound 31, (((((((2R,3S,4R,5R)-5-(6-Amino-8-(butylthio)-9H-purin-9-yl)-3,4-dihydroxytetrahydrofuran-2-yl)methoxy)(hydroxy)-phosphoryl)oxy)(hydroxy)phosphoryl)dibromomethyl)-phosphonic Acid] | 2 | > 10000 | 831 ± 274 | –
CCCCNc1nc2c(NC)ncnc2n1[C@@H]1O[C@H](COP(=O)(O)OP(=O)(O)C(Br)(Br)P(=O)(O)O)[C@@H](O)[C@H]1O [Compound 33, (Dibromo((((((2R,3S,4R,5R)-5-(8-(butylamino)-6-(methylamino)-9H-purin-9-yl)-3,4-dihydroxy-tetrahydrofuran-2-yl)methoxy)(hydroxy)phosphoryl)oxy)-(hydroxy)phosphoryl)methyl)-phosphonic Acid] | 4 | > 10000 | 185 ± 74 | 8
